Converted amounts (≈) assume the structure as drawn. Starred links: 1 amine or outer side, 2 acyl side, 3 side chain; linkers in the order of their positions; H or OH if unused. Non-standard residues stand in square brackets, D forms with d. Residues, ends and D or L forms follow the SMILES beside them. Gly(N-(CH2)3-guanidino) = N=C(N)NCCCNCC(=O)O; X1 = N=C(N)NCCN(CC(=O)[*:2])[*:1]; NhArg = N=C(N)NCCCCNCC(=O)O

Data set [1] has as its system Escherichia coli. Kind of data set: Antimicrobial activity against Escherichia coli ATCC 25922 after 18 hrs by broth microdilution susceptibility test. It counts as functional. To be noted: ATCC 25922, 18 h. Background: In broth dilution the organism is exposed to a series of concentrations in liquid medium.
The subject of the next data set is Klebsiella pneumoniae. Kind of data set: Antimicrobial activity against Klebsiella pneumoniae 22 after 18 hrs by broth microdilution susceptibility test. It counts as functional. The following applies: Klebsiella pneumoniae, 22, 18 h.
In data set [2] the test system is Salmonella enterica subsp. enterica. Kind of data set: Antimicrobial activity against Salmonella Typhimurium ATCC 14028 after 18 hrs by broth microdilution susceptibility test. The data set is classed as functional, Salmonella enterica subsp. enterica serovar Typhimurium. The following applies: ATCC 14028, 18 h.
Data set [3] in a line: Toxicity in human erythrocytes assessed as hemolytic activity at 30 uM after 60 mins. It counts as cell-based, Erythrocyte. The following applies: read-out: Activity.
Data set [4] in a line: Membrane permeabilization in eukaryotic membrane model consisting of single unilamellar vesicle of L-alpha-phosphatidylcholine-cholesterol assessed as 5(6)-carboxyfluorescein release at high peptide-to-lipid ratio after 20 mins by fluorescence assay. The data set is classed as ADME, cell membranes.
Data set [5] is described as follows: Membrane permeabilization in eukaryotic membrane model consisting of single unilamellar vesicle of L-alpha-phosphatidylcholine-cholesterol assessed as 5(6)-carboxyfluorescein release at high peptide-to-lipid ratio after 50 mins by fluorescence assay. It counts as ADME, cell membranes.
Data set [6] concerns Escherichia coli. Kind of data set: Antimicrobial activity against Escherichia coli ML35 after 18 hrs by broth microdilution susceptibility test. It counts as functional. To be noted: ML35, 18 h.
In data set [7] the test system is Escherichia coli. Kind of data set: Antimicrobial activity against Escherichia coli O18K1H7 after 18 hrs by broth microdilution susceptibility test. The following applies: O18K1H7, 18 h. It counts as functional.
The test system of data set [8] is Salmonella enterica subsp. enterica. Kind of data set: Antimicrobial activity against Salmonella enteritidis D5 after 18 hrs by broth microdilution susceptibility test. The following applies: D5, 18 h. It counts as functional, Salmonella enterica subsp. enterica serovar Enteritidis.
Data set [9] has the same test system. Kind of data set: Antimicrobial activity against Salmonella enteritidis PD1 after 18 hrs by broth microdilution susceptibility test. It counts as functional, Salmonella enterica subsp. enterica serovar Enteritidis. To be noted: PD1, 18 h.
A short description of data set [10]: Toxicity in human erythrocytes assessed as hemolytic activity at 300 uM after 60 mins. To be noted: read-out: Activity. It counts as cell-based, Erythrocyte.

`CC[C@H](C)[C@H](NC(=O)[C@H](Cc1ccc(O)cc1)NC(=O)[C@@H](NC(=O)[C@@H]1CCCN1C(=O)[C@H](CCCNC(=N)N)NC(=O)[C@H](CC(N)=O)NC(=O)[C@H](CC(N)=O)NC(=O)CN)C(C)C)C(=O)N1CCC[C@H]1C(=O)N[C@@H](CCC(N)=O)C(=O)N1CCC[C@H]1C(=O)N[C@@H](CCCNC(=N)N)C(=O)N1CCC[C@H]1C(=O)N[C@@H](Cc1cnc[nH]1)C(=O)N1CCC[C@H]1C(=O)N[C@@H](CCCNC(=N)N)C(=O)N[C@@H](CC(C)C)C(=O)O` (H-GNNRPVYIPQPRPHPRL-OH): the figures for the MIC (in the data set on Escherichia coli [1]; against Klebsiella pneumoniae; in [2]) were 128 µM (≈ 257 µg/mL), above 128 µM and above 128 µM, respectively. For the same molecule, the hemolysis at 1 h, 30 µM in data set [3] is at most 2%. Further, the Activity entry in [4] and in [5] was “Not Active” in each case.

As for `CC[C@H](C)[C@H](NC(=O)[C@H](Cc1ccc(O)cc1)NC(=O)[C@@H](NC(=O)[C@@H]1CCCN1C(=O)[C@H](CCCNC(=N)N)NC(=O)[C@H](CC(N)=O)NC(=O)[C@H](CC(N)=O)NC(=O)CN)C(C)C)C(=O)N1CCC[C@H]1C(=O)N[C@@H](CCC(N)=O)C(=O)N1CCC[C@H]1C(=O)N[C@@H](CCCNC(=N)N)C(=O)N1CCC[C@H]1C(=O)N1CCC[C@H]1C(=O)N[C@@H](Cc1cnc[nH]1)C(=O)N1CCC[C@H]1C(=O)N(CCCCNC(=N)N)CC(=O)N[C@@H](CC(C)C)C(=O)O` (H-GNNRPVYIPQPRPPHP[NhArg]L-OH), the MIC (in the data set on Escherichia coli [6]; in the data set on Escherichia coli [7]; against Escherichia coli [1]; against Klebsiella pneumoniae; in data set [8]; in data set [9]) was above 128 µM throughout. Besides, the MIC – broadly, the lowest concentration found to suppress growth – in [2] was above 128 µM. For the same molecule, the hemolysis at 1 h, 30 µM in [3] is at most 2%. Further, the hemolysis at 1 h, 300 µM in data set [10] was 0.81%. Also, the Activity entry in [4] and in [5] was “Not Active” throughout.

On to `CC[C@H](C)[C@H](NC(=O)[C@H](Cc1ccc(O)cc1)NC(=O)[C@@H](NC(=O)[C@@H]1CCCN1C(=O)[C@H](CCCNC(=N)N)NC(=O)[C@H](CC(N)=O)NC(=O)[C@H](CC(N)=O)NC(=O)CN)C(C)C)C(=O)N1CCC[C@H]1C(=O)N[C@@H](CCC(N)=O)C(=O)N1CCC[C@H]1C(=O)N[C@@H](CCCNC(=N)N)C(=O)N1CCC[C@H]1C(=O)N1CCC[C@H]1C(=O)N[C@@H](Cc1cnc[nH]1)C(=O)N1CCC[C@H]1C(=O)N(CCNC(=N)N)CC(=O)N[C@@H](CC(C)C)C(=O)O` (H-GNNRPVYIPQPRPPHP[X1]L-OH), for which the MIC (against Escherichia coli [6]; against Escherichia coli [7]; against Escherichia coli [1]; in the data set on Klebsiella pneumoniae; in [8]; in [9]) was above 128 µM each time. The MIC in data set [2] was above 128 µM. In [3], the hemolysis at 1 h, 30 µM is at most 2%. The hemolysis at 1 h, 300 µM in [10] was 0.62%. The Activity result in data set [4] and in data set [5] was “Not Active” in each case.

In the case of `CC[C@H](C)[C@H](NC(=O)[C@H](Cc1ccc(O)cc1)NC(=O)[C@@H](NC(=O)[C@@H]1CCCN1C(=O)[C@H](CCCNC(=N)N)NC(=O)[C@H](CC(N)=O)NC(=O)[C@H](CC(N)=O)NC(=O)CN)C(C)C)C(=O)N1CCC[C@H]1C(=O)N[C@@H](CCC(N)=O)C(=O)N1CCC[C@H]1C(=O)N(CCCNC(=N)N)CC(=O)N1CCC[C@H]1C(=O)N1CCC[C@H]1C(=O)N[C@@H](Cc1cnc[nH]1)C(=O)N1CCC[C@H]1C(=O)N[C@@H](CCCNC(=N)N)C(=O)N[C@@H](CC(C)C)C(=O)O` (H-GNNRPVYIPQP[Gly(N-(CH2)3-guanidino)]PPHPRL-OH), the MIC is 16 µM (≈ 33.7 µg/mL) in the data set on Escherichia coli [6]; 16 µM (≈ 33.7 µg/mL) with Escherichia coli [7]; 16 µM (≈ 33.7 µg/mL) with Escherichia coli [1]; above 128 µM with Klebsiella pneumoniae; 16 µM (≈ 33.7 µg/mL) in data set [8]; 32 µM (≈ 67.5 µg/mL) in data set [9]. In data set [2], this molecule had an MIC of 16 µM (≈ 33.7 µg/mL). Also, the hemolysis at 1 h, 30 µM in data set [3] was at most 2%. Moreover, the hemolysis at 1 h, 300 µM in [10] stood at 2%. Moreover, the Activity result in [4] and in data set [5] was “Not Active” throughout.

For the molecule `CC[C@H](C)[C@H](NC(=O)[C@H](Cc1ccc(O)cc1)NC(=O)[C@@H](NC(=O)[C@@H]1CCCN1C(=O)[C@H](CCCNC(=N)N)NC(=O)[C@H](CC(N)=O)NC(=O)[C@H](CC(N)=O)NC(=O)CN)C(C)C)C(=O)N1CCC[C@H]1C(=O)N[C@@H](CCC(N)=O)C(=O)N1CCC[C@H]1C(=O)N(CCCCNC(=N)N)CC(=O)N1CCC[C@H]1C(=O)N[C@@H](Cc1cnc[nH]1)C(=O)N1CCC[C@H]1C(=O)N[C@@H](CCCNC(=N)N)C(=O)N[C@@H](CC(C)C)C(=O)O` (H-GNNRPVYIPQP[NhArg]PHPRL-OH), the MIC is 16 µM (≈ 32.4 µg/mL) against Escherichia coli [6]; 32 µM (≈ 64.8 µg/mL) in the data set on Escherichia coli [7]; 32 µM (≈ 64.8 µg/mL) in the data set with Escherichia coli [1]; above 128 µM against Klebsiella pneumoniae; 64 µM (≈ 130 µg/mL) in [8]; 64 µM (≈ 130 µg/mL) in [9]. The molecule further registered an MIC in data set [2] of 32 µM (≈ 64.8 µg/mL). For the same molecule, the hemolysis at 1 h, 30 µM in data set [3] is at most 2%. In data set [10], the hemolysis at 1 h, 300 µM stood at 1.31%. For the same molecule, the Activity entry in data set [4] and in data set [5] was “Not Active” each time.

Take `CC[C@H](C)[C@H](NC(=O)[C@H](Cc1ccc(O)cc1)NC(=O)[C@@H](NC(=O)[C@@H]1CCCN1C(=O)[C@H](CCCNC(=N)N)NC(=O)[C@H](CC(N)=O)NC(=O)[C@H](CC(N)=O)NC(=O)CN)C(C)C)C(=O)N1CCC[C@H]1C(=O)N[C@@H](CCC(N)=O)C(=O)N1CCC[C@H]1C(=O)N(CCNC(=N)N)CC(=O)N1CCC[C@H]1C(=O)N1CCC[C@H]1C(=O)N[C@@H](Cc1cnc[nH]1)C(=O)N1CCC[C@H]1C(=O)N[C@@H](CCCNC(=N)N)C(=O)N[C@@H](CC(C)C)C(=O)O` (H-GNNRPVYIPQP[X1]PPHPRL-OH): the minimum inhibitory concentration (MIC) with Escherichia coli [6] was 16 µM (≈ 33.5 µg/mL); against Escherichia coli [7], 32 µM (≈ 67 µg/mL); against Escherichia coli [1], 32 µM (≈ 67 µg/mL); in the data set with Klebsiella pneumoniae, above 128 µM; in [8], 64 µM (≈ 134 µg/mL); in data set [9] it was 64 µM (≈ 134 µg/mL). The molecule also came in with an MIC in data set [2] of 32 µM (≈ 67 µg/mL). In addition, the hemolysis at 1 h, 30 µM in data set [3] was at most 2%. Besides, the hemolysis at 1 h, 300 µM in [10] was 0.87%. The Activity result in data set [4] and in data set [5] was “Not Active” in each case.

For the molecule `CC[C@H](C)[C@H](NC(=O)[C@H](Cc1ccc(O)cc1)NC(=O)[C@@H](NC(=O)[C@H](CCCNC(=N)N)NC(=O)[C@H](CC(N)=O)NC(=O)[C@H](CC(N)=O)NC(=O)CN)C(C)C)C(=O)N1CCC[C@H]1C(=O)N[C@@H](CCC(N)=O)C(=O)N1CCC[C@H]1C(=O)N[C@@H](CCCNC(=N)N)C(=O)N1CCC[C@H]1C(=O)N[C@@H](Cc1cnc[nH]1)C(=O)N1CCC[C@H]1C(=O)N[C@@H](CCCNC(=N)N)C(=O)N[C@@H](CC(C)C)C(=O)O` (H-GNNRVYIPQPRPHPRL-OH), the MIC (in the data set on Escherichia coli [1]; in the data set on Klebsiella pneumoniae; in data set [2]) was above 128 µM in each case. In data set [3], the hemolysis at 1 h, 30 µM is at most 2%. For the same molecule, the Activity result in data set [4] and in data set [5] was “Not Active” in each case.

With `CC[C@H](C)[C@H](NC(=O)[C@H](Cc1ccc(O)cc1)NC(=O)[C@@H](NC(=O)[C@@H]1CCCN1C(=O)CN(CCCNC(=N)N)C(=O)[C@H](CC(N)=O)NC(=O)[C@H](CC(N)=O)NC(=O)CN)C(C)C)C(=O)N1CCC[C@H]1C(=O)N[C@@H](CCC(N)=O)C(=O)N1CCC[C@H]1C(=O)N[C@@H](CCCNC(=N)N)C(=O)N1CCC[C@H]1C(=O)N1CCC[C@H]1C(=O)N[C@@H](Cc1cnc[nH]1)C(=O)N1CCC[C@H]1C(=O)N[C@@H](CCCNC(=N)N)C(=O)N[C@@H](CC(C)C)C(=O)O` (H-GNN[Gly(N-(CH2)3-guanidino)]PVYIPQPRPPHPRL-OH), the MIC against Escherichia coli [6] is 16 µM (≈ 33.7 µg/mL); with Escherichia coli [7] it was 16 µM (≈ 33.7 µg/mL); in the data set with Escherichia coli [1], 16 µM (≈ 33.7 µg/mL); with Klebsiella pneumoniae it was above 128 µM; in data set [8], 32 µM (≈ 67.5 µg/mL); in data set [9], 32 µM (≈ 67.5 µg/mL). Moreover, the MIC in data set [2] turned out to be 16 µM (≈ 33.7 µg/mL). Also, in data set [3], the hemolysis at 1 h, 30 µM was at most 2%. The hemolysis at 1 h, 300 µM in data set [10] was 0.06%. Besides, the Activity entry in [4] and in [5] was “Not Active” each time.

For the molecule `CC[C@H](C)[C@H](NC(=O)[C@H](Cc1ccc(O)cc1)NC(=O)[C@@H](NC(=O)[C@@H]1CCCN1C(=O)CN(CCCNC(=N)N)C(=O)[C@H](CC(N)=O)NC(=O)[C@H](CC(N)=O)NC(=O)CN)C(C)C)C(=O)N1CCC[C@H]1C(=O)N[C@@H](CCC(N)=O)C(=O)N1CCC[C@H]1C(=O)N(CCCNC(=N)N)CC(=O)N1CCC[C@H]1C(=O)N1CCC[C@H]1C(=O)N[C@@H](Cc1cnc[nH]1)C(=O)N1CCC[C@H]1C(=O)N(CCCNC(=N)N)CC(=O)N[C@@H](CC(C)C)C(=O)O` (H-GNN[Gly(N-(CH2)3-guanidino)]PVYIPQP[Gly(N-(CH2)3-guanidino)]PPHP[Gly(N-(CH2)3-guanidino)]L-OH), in the data set on Escherichia coli [7], the minimal inhibitory concentration (MIC) is above 128 µM. Also, in data set [10], the hemolysis at 1 h, 300 µM was 0.06%.

These data come from ChEMBL document CHEMBL1152983, “Substitution of the arginine/leucine residues in apidaecin Ib with peptoid residues: effect on antimicrobial activity, cellular uptake, and proteolytic degradation” (J Med Chem, 2009).
